Among the data in US6875760B2 (Novo Nordisk A/S, priority 1999, dated 2005) are IC50 values, retold here.

In this assay the target is T1, human glucagon receptor (Homo sapiens, UniProt P47871).
T1 construct: expressed in transfected cells; host or cells: BHK (baby hamster kidney) cells
In words: Glucagon Binding Assay (III). The settings on record: BHK cell membranes, WGA SPA beads, 125I-glucagon; read-out: Glu Bd Assay (III) IC50. The gist of the method:
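Non-specific binding was set with 500 nM glucagon in this SPA-type binding assay using WGA beads. The receptor source was a membrane preparation, kept on ice or at 4 °C, from BHK cells transfected with the human receptor. Scintillation counts were taken after 4 hours of shaking and 8–48 hours of settling.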

T1 sequence (P47871 26-477): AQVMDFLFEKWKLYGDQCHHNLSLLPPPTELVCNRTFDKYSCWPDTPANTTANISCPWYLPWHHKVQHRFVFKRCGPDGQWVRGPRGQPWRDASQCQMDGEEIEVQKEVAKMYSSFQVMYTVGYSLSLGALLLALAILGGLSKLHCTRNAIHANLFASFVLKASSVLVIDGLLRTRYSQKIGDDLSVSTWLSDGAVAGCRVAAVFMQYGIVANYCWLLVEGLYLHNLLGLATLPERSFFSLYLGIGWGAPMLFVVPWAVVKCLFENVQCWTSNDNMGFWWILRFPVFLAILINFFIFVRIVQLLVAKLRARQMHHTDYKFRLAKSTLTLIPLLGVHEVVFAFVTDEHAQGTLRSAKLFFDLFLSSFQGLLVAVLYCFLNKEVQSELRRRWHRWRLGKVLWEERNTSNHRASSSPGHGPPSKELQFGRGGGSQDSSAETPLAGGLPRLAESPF

For the compound `O=C(O)CCNC(=O)c1ccc(CN(C(=O)Nc2cc(Br)cc(C(F)(F)F)c2)c2ccc(C3CCCCC3)cc2)cc1` [Example 394, 3-{4-[1-(4-Cyclohexylphenyl)-3-(3-bromo-5-trifluoromethylphenyl)ureidomethyl]benzoylamino}propionic acid], the half-inhibitory concentration (IC50) was 0.017 µM. Regarding `O=C(Nc1nn[nH]n1)c1ccc(CN(C(=O)NCc2cc(Cl)cc(Cl)c2)c2ccc(C3CCCCC3)cc2)cc1` [Example 397, 4-[1-(4-Cyclohexylphenyl)-3-(3,5-dichlorobenzyl)ureidomethyl]-N-(2H-tetrazol-5-yl)benzamide], the concentration for half-maximal inhibition (IC50) was determined as 0.12 µM. The same measure for `CC(C)(C)C1CCC(N(Cc2ccc(C(=O)NCCC(=O)O)cc2)C(=O)Oc2ccc(-c3ccccc3)cc2)CC1` (stereo not shown) [Example 398, 3-(4-{[(Biphenyl-4-yloxycarbonyl)-(4-tert-butylcyclohexyl)amino]methyl}benzoylamino)propionic acid]: 0.135 µM; for `CC(C)(C)C1CCC(N(Cc2ccc(C(=O)NCCC(=O)O)cc2)C(=O)Oc2ccc([N+](=O)[O-])cc2)CC1` (stereo not shown) [Example 399, 3-(4-{[(4-tert-Butylcyclohexyl)-(4-nitrophenoxycarbonyl)amino]methyl}benzoylamino)propionic acid]: 0.12 µM. Regarding `O=C(O)CCNC(=O)c1ccc(CN(C(=O)Oc2cc(Cl)cc(Cl)c2)c2ccc(C3CCCCC3)cc2)cc1` [Example 400, 3-(4-{[(4-Cyclohexylphenyl)-(3,5-dichlorophenoxycarbonyl)amino]methyl}benzoylamino)propionic acid], the IC50 is 0.533 µM. As to `CC(C)(C)C1CCC(N(Cc2ccc(C(=O)NCCC(=O)O)cc2)C(=O)Oc2ccc(Cl)c(Cl)c2)CC1` (stereo not shown) [Example 401, 3-(4-{[(4-tert-Butylcyclohexyl)-(3,4-dichlorophenoxycarbonyl)amino]methyl}benzoylamino)propionic acid], the IC50 is 0.176 µM. Turning to `CC(C)(C)C1CCC(N(Cc2ccc(C(=O)NCCC(=O)O)cc2)C(=O)Oc2cc(Cl)cc(Cl)c2)CC1` (stereo not shown) [Example 402, 3-(4-{[(4-tert-Butylcyclohexyl)-(3,5-dichlorophenoxycarbonyl)amino]methyl}benzoylamino)propionic acid], the IC50 came to 0.176 µM. With `CC(C)(C)C1CCC(N(Cc2ccc(C(=O)NCCC(=O)O)cc2)C(=O)Oc2cc(C(F)(F)F)cc(C(F)(F)F)c2)CC1` (stereo not shown) [Example 403, 3-(4-{[(3,5-Bis(trifluoromethyl)phenoxycarbonyl)-(4-tert-butylcyclohexyl)amino]methyl}benzoylamino)propionic acid], the IC50 is 0.338 µM. The same measure for `CC(C)(C)C1CCC(N(Cc2ccc(C(=O)NCCC(=O)O)cc2)C(=O)Oc2ccc(Br)cc2Br)CC1` (stereo not shown) [Example 404, 3-(4-{[(4-tert-Butylcyclohexyl)-(2,4-dibromophenoxycarbonyl)amino]methyl}benzoylamino)propionic acid]: 0.346 µM; for `CC(C)(C)C1CCC(N(Cc2ccc(C(=O)NCCC(=O)O)cc2)C(=O)Oc2ccc(OC(F)(F)F)cc2)CC1` (stereo not shown) [Example 405, 3-(4-{[(4-tert-Butylcyclohexyl)-(4-trifluoromethoxyphenoxecarbonyl)amino]methyl}benzoylamino)propionic acid]: 0.224 µM.

On to `CC(C)(C)c1ccc(N(Cc2ccc(C(=O)Nc3nn[nH]n3)cc2)C(=O)Oc2cc(C(F)(F)F)cc(C(F)(F)F)c2)cc1` [Example 406], for which the IC50 is 0.751 µM. The result for `CC(C)(C)c1ccc(N(Cc2ccc(C(=O)NCCC(=O)O)cc2)C(=O)Oc2ccc(Cl)cc2Cl)cc1` [Example 407, 3-(4-{[(4-tert-Butylphenyl)-(2,4-dichlorophenoxycarbonyl)amino]methyl}benzoylamino)propionic acid] reads 0.756 µM. The result for `CC(C)(C)C1CCC(N(Cc2ccc(C(=O)NCCC(=O)O)cc2)C(=O)Oc2cccc(OC(F)(F)F)c2)CC1` (stereo not shown) [Example 408, 3-(4-{[(4-tert-Butylcyclohexyl)-(3-trifluoromethoxyphenoxycarbonyl)amino]methyl}benzoylamino)propionic acid] reads 0.58 µM. `CC(C)(C)c1ccc(N(Cc2ccc(C(=O)NCCC(=O)O)cc2)C(=O)Oc2cc(Cl)cc(Cl)c2)cc1` [Example 409, 3-(4-{[(4-tert-Butylphenyl)-(3,5-dichlorophenoxycarbonyl)amino]methyl}benzoylamino)propionic acid]: the IC50 came out at 0.52 µM. For the compound `CC(C)(C)c1ccc(N(Cc2ccc(C(=O)NCCC(=O)O)cc2)C(=O)Oc2cc(C(F)(F)F)cc(C(F)(F)F)c2)cc1` [Example 410, 3-(4-{[(3,5-Bis(trifluoromethyl)phenoxycarbonyl)-(4-tert-butylphenyl)amino]methyl}benzoylamino)propionic acid], the concentration for half-maximal inhibition (IC50) was determined as 0.386 µM. The result for `CC(C)(C)c1ccc(N(Cc2ccc(C(=O)NCCC(=O)O)cc2)C(=O)Oc2ccc(OC(F)(F)F)cc2)cc1` [Example 411, 3-(4-{[(4-tert-Butylphenyl)-(4-trifluoromethoxyphenoxycarbonyl)amino]methyl}benzoylamino)propionic acid] reads 0.704 µM; that for `CC(C)(C)c1ccc(N(Cc2ccc(C(=O)NCCC(=O)O)cc2)C(=O)Oc2cccc(OC(F)(F)F)c2)cc1` [Example 412, 3-(4-{[(4-tert-Butylphenyl)-(3-trifluoromethoxyphenoxycarbonyl)amino]methyl}benzoylamino)propionic acid], 0.604 µM.

`O=C(O)CCNC(=O)c1ccc(CN(C(=O)Oc2ccc([N+](=O)[O-])cc2)c2ccc(C3CCCCC3)cc2)cc1` [Example 413, 3-(4-{[(4-Cyclohexylphenyl)-(4-nitrophenoxycarbonyl)amino]methyl}benzoylamino)propionic acid]: the IC50 came out at 1.2 µM.

As to `O=C(O)CCNC(=O)c1ccc(CN(C(=O)Oc2cccc([N+](=O)[O-])c2)c2ccc(C3CCCCC3)cc2)cc1` [Example 414, 3-(4-{[(4-Cyclohexylphenyl)-(3-nitrophenoxycarbonyl)amino]methyl}benzoylamino)propionic acid], the IC50 was 0.934 µM.

With `O=C(O)CCNC(=O)c1ccc(CN(C(=O)Oc2ccccc2[N+](=O)[O-])c2ccc(C3CCCCC3)cc2)cc1` [Example 415, 3-(4-{[(4-Cyclohexylphenyl)-(2-nitrophenoxycarbonyl)amino]methyl}benzoylamino)propionic acid], the concentration for half-maximal inhibition (IC50) is 2.42 µM.

For `O=C(O)CCNC(=O)c1ccc(CN(C(=O)Oc2ccc(Cl)cc2Cl)c2ccc(C3CCCCC3)cc2)cc1` [Example 416, 3-(4-{[(4-Cyclohexylphenyl)-(2,4-dichlorophenoxycarbonyl)amino]methyl}benzoylamino)propionic acid], the IC50 came out at 0.634 µM. The same measure for `O=C(O)CCNC(=O)c1ccc(CN(C(=O)Oc2ccc(F)c(F)c2)c2ccc(C3CCCCC3)cc2)cc1` [Example 417, 3-(4-{[(4-Cyclohexylphenyl)-(3,4-difluorophenoxycarbonyl)amino]methyl}benzoylamino)propionic acid]: 0.877 µM; for `CSc1ccc(OC(=O)N(Cc2ccc(C(=O)NCCC(=O)O)cc2)c2ccc(C3CCCCC3)cc2)cc1` [Example 418, 3-(4-{[(4-Cyclohexylphenyl)-(4-methylsulfanylphenoxycarbonyl)amino]methyl}benzoylamino)propionic acid]: 0.472 µM. As for `O=C(O)CCNC(=O)c1ccc(CN(C(=O)Oc2cc(C(F)(F)F)cc(C(F)(F)F)c2)c2ccc(C3CCCCC3)cc2)cc1` [Example 419, 3-(-4-{[(3,5-Bis(trifluoromethyl)phenoxycarbonyl)-(4-cyclohexylphenyl)amino]methyl}benzoylamino)propionic acid], the IC50 was 0.482 µM. The result for `O=C(O)CCNC(=O)c1ccc(CN(C(=O)Oc2ccc(Br)cc2Br)c2ccc(C3CCCCC3)cc2)cc1` [Example 420, 3-(4-{[(4-Cyclohexylphenyl)-(2,4-dibromompheoxycarbonyl)amino]methyl}benzoylamino)propionic acid] reads 0.729 µM; that for `O=C(O)CCNC(=O)c1ccc(CN(C(=O)Oc2cccc(OC(F)(F)F)c2)c2ccc(C3CCCCC3)cc2)cc1` [Example 421, 3-(4-{[(4-Cyclohexylphenyl)-(3-trifluoromethoxyphenoxycarbonyl)amino]methyl}benzoylamino)propionic acid], 0.528 µM; that for `O=C(O)CCNC(=O)c1ccc(CN(Cc2cc(Cl)cc(Cl)c2)NC(=O)c2ccc(OC(F)(F)F)cc2)cc1` [Example 422, 3-{4-[N-(3,5-Dichlorobenzyl)-N′-(4-trifluoromethoxybenzoyl)hydrazinomethyl]benzoylamino}propionic acid], 0.536 µM. As for `CCC(C)(C)C1CCC(N(Cc2ccc(C(=O)NCCC(=O)O)cc2)NC(=O)c2ccc(OC(F)(F)F)cc2)CC1` (stereo not shown) [Example 423, 3-{4-[N-[4-(1,1-Dimethylpropyl)cyclohexyl]-N′-(4-trifluoromethoxybenzoyl)hydrazinomethyl]benzoylamino}propionic acid], the IC50 came out at 0.037 µM. The result for `CC(C)(C)C1CCC(N(Cc2ccc(C(=O)NCCC(=O)O)cc2)NC(=O)c2ccc(OC(F)(F)F)cc2)CC1` (stereo not shown) [Example 424, 3-{4-[N-(4-tert-Butylcyclohexyl)-N′-(4-trifluoromethoxybenzoyl)hydrazinomethyl]benzoylamino}propionic acid] reads 0.061 µM; that for `O=C(O)CCNC(=O)c1ccc(CN(NC(=O)c2ccc(OC(F)(F)F)cc2)C2C[C@@H]3C[C@H]2C2CCCC23)cc1` (stereo partly shown) [Example 425, 3-{4-[N-(Octahydro-4,7-methanoinden-5-yl)-N′-(4-trifluoromethoxybenzoyl)hydrazinomethyl]benzoylamino}propionic acid], 0.22 µM. The same measure for `O=C(O)CCNC(=O)c1ccc(CN(NC(=O)c2ccc(OC(F)(F)F)cc2)C2CCC(c3ccccc3)CC2)cc1` (stereo not shown) [Example 426, 3-{4-[N-(4-Phenylcyclohexyl)-N′-(4-trifluoromethoxybenzoyl)hydrazinomethyl]benzoylamino}propionic acid]: 0.338 µM.

In general, IC50 refers to the midpoint of a concentration-inhibition curve.
